From patent US20250194596A1 (priority 2023, published 2025)
Where a name gives a salt, the structure may show the parent alone. Read-outs that look alike come from different tables or passages of the source.

What was measured:
[1] = tested on: CLas; assay type: in vivo, Candidatus Liberibacter asianticum
[2] = tested on: CLas; assay type: in vivo, Candidatus Liberibacter asianticum; details: injection into the tree trunks for one week
[3] = assay type: physicochemical; details: 10 mg/mL in water
[4] = on human beings and animals; cited from earlier work

In the case of `O=C(/C=C/c1ccc(O)c(O)c1)O[C@@H]1C[C@](O)(C(=O)O)C[C@@H](O)[C@H]1O` [chlorogenic acid], the CLas content reduced ([1]; 0.5 mg/mL chlorogenic acid, mesophyll injection, 3 d) is reported as “more than 60%”, the “inhibitory effect on CLas” value ([1]; 10 mg/mL, mesophyll injection, 3 d) is reported as “equivalent to that of 5 mg/mL” and the “antibacterial effect on CLas” value ([1]; concentrations below 0.5 mg/mL, mesophyll injection, 3 d) is reported as “not obvious”. For the same compound, the “concentration achieving a significant inhibitory effect on CLas” value ([1]; in vivo) was “not less than 5 mg/mL”, the “reduction of CLas content” value ([1]; injection into the mesophyll for 3 days) was “about 60%” and the “minimum inhibitory concentration (MIC) of chlorogenic acid for CLas” value ([1]; mesophyll injection of HLB-infected leaves, CLas content after 3 d) was 500 µg/mL. The “reduction of CLas content” value [2] was “about 60%” and the appearance of solution [3] was “turbid”.

For `CN(C)[C@@H]1C(O)=C(C(N)=O)C(=O)[C@@]2(O)C(O)=C3C(=O)c4c(O)cccc4[C@@](C)(O)[C@H]3[C@H](O)[C@@H]12` [oxytetracycline hydrochloride, reference compound], the “reduction of CLas content” value ([1]; 20 mg/mL, mesophyll injection, 3 d) was “about 20%”.

For rhamnolipid, the “toxic or side effects” value [4] is listed as “no toxic or side effects”.

In the case of `CC1(C)S[C@@H]2[C@H](NC(=O)[C@H](N)c3ccccc3)C(=O)N2[C@H]1C(=O)O` [ampicillin, reference compound], the CLas content reduced ([1]; 12 mg/mL, mesophyll injection, 3 d) is reported as “more than 80%”.
